Patent publication US6630177B1, “Products extracted from a plant of the genus Commiphora, particularly the Commiphora mukul plant, extracts containing same and applications thereof, for example in cosmetics” (Parfums Christian Dior, priority 1995, dated 2003)
Entries after “also recorded” stand apart in the source; their conditions may differ.

Assays:
3T3 F442A = test: Determination of the glycero-3-phosphate dehydrogenase (G3PDH) activity in treated fibroblast (preadipocyte) cultures; format: cell-based, murine; details: for Rate of conversion of NADH: 3T3 F442A cultures treated at 5 μg/ml on D+5, D+7, D+9, G3PDH assayed on D+12, mean of three experiments; for Activity A1 (stimulation of G3PDH activity versus control cultures): 3T3 F442A cultures, calculated from Vp and Vt
Source text: The cells used are 3T3 F442A, which constitute a line of murine preadipocytes selected for their ability to convert to adipocytes if the culture conditions allow, in accordance with the method of Green, H. & Kehinde, C., Cell 1 (1974) 113.
The aim was to measure the expression of two differentiation markers, namely glycero-3-phosphate dehydrogenase (G3PDH) on the one hand and cyclic AMP (cAMP) on the other.
It is pointed out here that the enzyme G3PDH allows the formation, in the fibroblast, of glycerol 3-phosphate, a molecule which is subsequently involved in the synthesis of the intracellular lipids (triglycerides). Thus an increase in the activity of the G3PDH is directly linked to an increase in this synthesis.
The fibroblasts are inoculated at the bottom of Petri dishes of diameter 35 mm in Dulbecco's Modified Eagle's Medium (DMEM), in the presence of 5% of calf serum (CS) and 5% of fetal calf serum (FCS). Each experiment is performed in triplicate.
During the treatment phase, the medium consists of DMEM+10% of fetal calf serum.
The product or extract according to the invention is dissolved in ethanol and used on the cultures at a final concentration of 5 μg/ml.
On day D+5: treatment with resin of Commiphora mukul (extract G), FIIB1 or IIa or IIb at 5 μg/ml in DMEM, 10% FCS
On days D+7 and D+9: treatment identical to that performed on D+5
On day D+12: grinding of the cells for assay of G3PDH.
The cellular monolayer is recovered by scraping and vigorously homogenized in TRIS-HCl buffer (25 mM, pH 7.4), 1 mM EDTA, at 4° C. The G3PDH activity is determined on the supernatant of the ground cellular material immediately after centrifugation.
It is possible to calculate an absorption difference (ΔAbs)/min, which corresponds to the initial rate of the enzymatic reaction.
The results are expressed in terms of specific activity, i.e. in nmol of NADH converted/min/mg of cellular proteins (the total cellular protein content is evaluated by the method of BCA—PIERCE: protein assay reagent).
The activity Al of the products according to the invention on stimulation of the activity of this enzyme is calculated according to the following formula: [formula]
Vp is the mean value, over the three experiments, of the rate of conversion of NADH, expressed in nmol/min/mg of cellular proteins, in the cultures treated with the products according to the invention,
Vt is the mean value of this rate in the control cultures.

fibroblasts in culture = test: Lipogenic activity of the fractions on fibroblasts in culture; format: cell-based; details: result in words
Description: In a first step, the extract G is subjected to a series of fractionations by high performance liquid chromatography. Each fraction is tested for its lipogenic activity on fibroblasts in culture using the method explained below. These different fractionations ultimately yield an active fraction, FIIB, whose characteristic peaks are identified on the chromatogram.

| Structure (SMILES) | Rate of conversion of NADH (3T3 F442A) | Activity A1 (stimulation of G3PDH activity versus control cultures) (3T3 F442A; 5 μg/ml) | Increase of the activity of the enzyme G3PDH compared with control cultures (3T3 F442A; fibroblast cultures, 5 μg/ml) | Lipogenic activity (fibroblasts in culture) |
| --- | --- | --- | --- | --- |
| C/C(=C\CC/C(C)=C/CC[C@@H]1[C@@]2(C)CCC(=O)C(C)(C)[C@@H]2CC[C@@]1(C)O)CC/C=C(\C)C(=O)O [IIb, (5R,10S,8R,9R)-8-hydroxy-3-oxopolypoda-13E,17E,21 E-trien-30-oic acid] | 352 ± 62 nmol/min/mg of proteins | 610% | 7 fold | give the best results; also recorded: substantially equivalent |
| C/C(=C\CC/C(C)=C/CC/C(C)=C/CC[C@@H]1[C@@]2(C)CCC(=O)C(C)(C)[C@@H]2CC[C@@]1(C)O)CO [IIa, (5R, 10S,8R,9R)-3-oxopolypoda-13E,17E,21E-triene-8,30-diol] | 222 ± 88 nmol/min/mg of proteins | 348% | – | give the best results; also recorded: substantially equivalent |
